Consider one compound from patent US20250281509A1, “SEQUENTIAL HORMONE THERAPY TO IMPROVE SURVIVAL AND ENHANCE RESPONSE TO IMMUNE THERAPY IN MEN WITH PROSTATE CANCER” (The Johns Hopkins University, priority 2021, published 2025).

For one assay, the system named is autophagy. In words: Autophagy induction in PCa cell lines. In kind it is cell-based, human. On the procedure: (§1) Cell lysates were prepared either in 1× denaturing lysis buffer (Cell Signaling #9803) or non-denaturing lysis buffer (50 mM HEPES pH 7.4, 150 mM NaCl, 5 mM EDTA, 10% glycerol, 1% Nonidet P-40, and supplemented with phosphatase and protease inhibitors). For denaturing gels, lysates were mixed with Laemmli buffer containing β-mercaptoethanol, boiled for 5 mins and stored at −80° C. until use. Native lysates were mixed with native loading buffer (BioRad), and semi-native lysates were mixed with Laemmli buffer without beta-mercaptoethanol and stored at −80° C. without boiling. Native gels were resolved as described previously, Robitaille et al., 2016; denaturing and semi-native gels were resolved on 4-15% precast polyacrylamide gels (BioRad) followed by transfer to PVDF membrane. Membranes were blocked in 5% nonfat milk in wash buffer (Tris-buffered saline+0.1% Tween-20). After blocking, immunoblotting was performed with primary antibodies overnight at 4° C., followed by incubation with HRP-conjugated secondary antibodies for 1 h at room temperature. Blots were analyzed using the chemiluminescence method. Blots were developed using ECL Western blot detection reagent (GE Healthcare) for highly expressed proteins and Super Signal West Femto (Thermo Fisher) reagent for low expression proteins. Each experiment was repeated at least two to three times.
Cells were plated on 60-mm dishes to obtain 80% confluence on the next day. Cells were transfected with tandem mRFP-GFP fluorescent-tagged LC3 (ptfLC3) (Addgene #21074). 24 h post-transfection, cells were trypsinized and plated on sterile glass-bottom dishes at a 40-50% confluency and treated with androgens. Autophagosomes are labelled as green and red dual positive punctas and autolysosomes appear as red puncta as the green puncta is pH sensitive and quenched by the acidic lysosomal pH. Cells were then imaged using a live cell Zeiss LSM780-FCS Single-point, laser scanning confocal microscope. Images were processed using the ImageJ software. Cells with predominantly yellow RFP/GFP (autophagosome) or red RFP (autolysosome) punctae were counted and analyzed from at least twenty fields. Each experiment had images from at least five random fields and repeated three times.

Another assay concerns CXCL10. In words: CXCL10 transcript and protein. In kind it is cell-based, human. The conditions noted are these: LNCaP vs LAPC4 cells. As for the experimental part:
Total RNA was extracted from cells using Trizol reagent (Thermo Fisher) as per manufacturer's instructions. cDNA was synthesized from RNA by reverse transcription using SuperScript IV reverse (Thermo Fisher). Quantitative PCR was performed on samples mixed with SYBR master mix (BioRad) and gene-specific primers using a real-time thermocycler (BioRad). Data analysis was performed using the ΔΔCt method, and fold change (2^^−ΔΔ^Ct) was calculated after double normalization with the housekeeper gene and respective untreated control. Each PCR reaction was run in triplicates.
Cell lysates were prepared either in 1× denaturing lysis buffer (Cell Signaling #9803) or non-denaturing lysis buffer (50 mM HEPES pH 7.4, 150 mM NaCl, 5 mM EDTA, 10% glycerol, 1% Nonidet P-40, and supplemented with phosphatase and protease inhibitors). For denaturing gels, lysates were mixed with Laemmli buffer containing β-mercaptoethanol, boiled for 5 mins and stored at −80° C. until use. […] Blots were analyzed using the chemiluminescence method. […]
The concentration of 17 chemokines, cytokines, and growth factors in culture supernatants of control or R1881 treated LNCaP cells was determined using the Bioplex Pro Human Cytokine 17-plex assay system (Bio-Rad) according to manufacturer's protocol. […] Data was collected on the Bio-Rad BioPlex 200 instrument and analyzed using the Bio-Plex Manager (Bio-Rad Laboratory).

The test system of the next assay is STING. In words: STING dimerization assay (native western blot). The conditions noted are these: LNCaP vs LAPC4 cells. In kind it is cell-based, human. On the procedure: as §1
(A western blot detects proteins with antibodies after separation by electrophoresis.)

The next assay deals with ferritin. Put plainly: Ferritin level by western blot. As to conditions: LNCaP cells, supraphysiological levels. Type of assay: cell-based, human. As for the experimental part: as §1
A further assay has as its system LAPC4 cells. As to conditions: androgen-deprived LAPC4 cells, high levels of DHT.
Another assay concerns LNCaP cells. The conditions noted are these: androgen-deprived LNCaP cells, high-dose DHT.
In a further assay the test system is NIK, p52, RELB. In words: Immunoblotting for non-canonical NF-kappaB pathway. Type of assay: cell-based, human.

Method for NIK, p52, RELB: For denaturing gels, lysates were mixed with Laemmli buffer containing β-mercaptoethanol, boiled for 5 mins and stored at −80° C. until use. Native lysates were mixed with native loading buffer (BioRad), and semi-native lysates were mixed with Laemmli buffer without beta-mercaptoethanol and stored at −80° C. without boiling. […] Membranes were blocked in 5% nonfat milk in wash buffer (Tris-buffered saline+0.1% Tween-20). After blocking, immunoblotting was performed with primary antibodies overnight at 4° C., followed by incubation with HRP-conjugated secondary antibodies for 1 h at room temperature. Blots were analyzed using the chemiluminescence method. Blots were developed using ECL Western blot detection reagent (GE Healthcare) for highly expressed proteins and Super Signal West Femto (Thermo Fisher) reagent for low expression proteins. Each experiment was repeated at least two to three times.

On to `C[C@]12CCC(=O)C[C@@H]1CC[C@@H]1[C@@H]2CC[C@]2(C)[C@@H](O)CC[C@@H]12` [DHT, dihydrotestosterone], for which the autophagy result in the assay with autophagy (LAPC4 cells) was “but not in LAPC4 cells”; in the assay on autophagy (LNCaP cells) it was “robustly increased autophagy”. For the same compound, the CXCL10 induction result with CXCL10 is reported as “able to induce CXCL10 (less robustly than R1881) preferentially in LNCaP cells”. Also, the “STING and MAVS activation” value in the assay with STING was “activated STING and MAVS preferentially in LNCaP cells, however, the activation was not as robust as R1881”. In the assay with ferritin, the ferritin levels result is on record as “decreased ferritin levels”. In addition, the “double strand breaks (γH2A.x foci)” value in the assay with LAPC4 cells is recorded as “numerous double strand breaks throughout the nucleus”. Moreover, the “double strand break formation (γH2A.x foci)” value in the assay with LNCaP cells is reported as “numerous γH2A.x foci”. In addition, the “RelB and NIK stabilization” value in the assay with NIK, p52, RELB was “led to stabilization of RelB and NIK”.
